Laboratory results reported in the NIST ThermoML archive (doi:10.1016/j.jct.2018.12.018).
“And” between values parts separate entries of the source, which are not always exact repeats. Identical values can stand only once. ± gives the expanded uncertainty stated by the source.

Assay: xn = mol fraction of the nth substance listed
Conditions: Liquid, x1 = 0.617; for speed of sound: Frequency=3 MHz, Single path-length method; for mass density: Vibrating tube method

CCOC(F)(F)C(F)(C(F)(F)F)C(F)(F)F [nonafluoroisobutyl ethyl ether] + CCOC(F)(F)C(F)(F)C(F)(F)C(F)(F)F
Conditions	mass density	speed of sound [m/s]
293.15 K, 100 kPa	1433.9 ± 0.9 kg/m3 and 1434.27 ± 1.1 kg/m3	637.83 ± 1.4
293.15 K, 1000 kPa	1436.6 ± 0.9 kg/m3	–
293.15 K, 5000 kPa	1448.2 ± 1 kg/m3	–
293.15 K, 10000 kPa	1461.3 ± 1 kg/m3	–
293.15 K, 15000 kPa	1473.4 ± 1.1 kg/m3	–
293.15 K, 20000 kPa	1484.5 ± 1.2 kg/m3	–
293.15 K, 25000 kPa	1494.8 ± 1.3 kg/m3	–
293.15 K, 30000 kPa	1504.7 ± 1.4 kg/m3	–
293.15 K, 35000 kPa	1513.9 ± 1.4 kg/m3	–
293.15 K, 40000 kPa	1522.5 ± 1.5 kg/m3	–
293.15 K, 45000 kPa	1530.8 ± 1.6 kg/m3	–
293.15 K, 50000 kPa	1538.7 ± 1.8 kg/m3	–
293.15 K, 55000 kPa	1546.3 ± 1.9 kg/m3	–
293.15 K, 60000 kPa	1553.5 ± 2 kg/m3	–
293.15 K, 65000 kPa	1560.5 ± 2.1 kg/m3	–
293.15 K, 70000 kPa	1567.2 ± 2.3 kg/m3	–
293.15 K, 80000 kPa	1580 ± 2.5 kg/m3	–
293.15 K, 90000 kPa	1591.9 ± 2.8 kg/m3	–
293.15 K, 100000 kPa	1603.1 ± 3.1 kg/m3	–
293.15 K, 110000 kPa	1613.9 ± 3.4 kg/m3	–
293.15 K, 120000 kPa	1624 ± 3.7 kg/m3	–
293.15 K, 130000 kPa	1633.7 ± 4 kg/m3	–
293.15 K, 140000 kPa	1642.8 ± 4.3 kg/m3	–
298.15 K, 100 kPa	1423.06 ± 1.1 kg/m3 and 1422.8 ± 0.9 kg/m3	622.13 ± 1.4
298.15 K, 1000 kPa	1425.6 ± 0.9 kg/m3	–
298.15 K, 5000 kPa	1437.7 ± 1 kg/m3	–
298.15 K, 10000 kPa	1451.5 ± 1 kg/m3	–
298.15 K, 15000 kPa	1463.9 ± 1.1 kg/m3	–
298.15 K, 20000 kPa	1475.4 ± 1.2 kg/m3	–
298.15 K, 25000 kPa	1486.2 ± 1.3 kg/m3	–
298.15 K, 30000 kPa	1496.1 ± 1.3 kg/m3	–
298.15 K, 35000 kPa	1505.7 ± 1.4 kg/m3	–
298.15 K, 40000 kPa	1514.5 ± 1.5 kg/m3	–
298.15 K, 45000 kPa	1523 ± 1.6 kg/m3	–
298.15 K, 50000 kPa	1531.1 ± 1.7 kg/m3	–
298.15 K, 55000 kPa	1538.8 ± 1.9 kg/m3	–
298.15 K, 60000 kPa	1546.3 ± 2 kg/m3	–
298.15 K, 65000 kPa	1553.4 ± 2.1 kg/m3	–
298.15 K, 70000 kPa	1560.2 ± 2.3 kg/m3	–
298.15 K, 80000 kPa	1573.2 ± 2.5 kg/m3	–
298.15 K, 90000 kPa	1585.4 ± 2.8 kg/m3	–
298.15 K, 100000 kPa	1596.9 ± 3.1 kg/m3	–
298.15 K, 110000 kPa	1607.6 ± 3.4 kg/m3	–
298.15 K, 120000 kPa	1618 ± 3.7 kg/m3	–
298.15 K, 130000 kPa	1627.8 ± 4 kg/m3	–
298.15 K, 140000 kPa	1637.2 ± 4.3 kg/m3	–
303.15 K, 100 kPa	1411.62 ± 1.1 kg/m3	606.46 ± 1.4
313.15 K, 100 kPa	1388.53 ± 1 kg/m3 and 1388.4 ± 0.9 kg/m3	575.75 ± 1.4
313.15 K, 1000 kPa	1391.8 ± 0.9 kg/m3	–
313.15 K, 5000 kPa	1405.6 ± 0.9 kg/m3	–
313.15 K, 10000 kPa	1421.1 ± 1 kg/m3	–
313.15 K, 15000 kPa	1435.1 ± 1.1 kg/m3	–
313.15 K, 20000 kPa	1447.8 ± 1.1 kg/m3	–
313.15 K, 25000 kPa	1459.5 ± 1.2 kg/m3	–
313.15 K, 30000 kPa	1470.6 ± 1.3 kg/m3	–
313.15 K, 35000 kPa	1480.8 ± 1.4 kg/m3	–
313.15 K, 40000 kPa	1490.3 ± 1.5 kg/m3	–
313.15 K, 45000 kPa	1499.5 ± 1.6 kg/m3	–
313.15 K, 50000 kPa	1508.1 ± 1.7 kg/m3	–
313.15 K, 55000 kPa	1516.4 ± 1.8 kg/m3	–
313.15 K, 60000 kPa	1524.3 ± 1.9 kg/m3	–
313.15 K, 65000 kPa	1531.9 ± 2 kg/m3	–
313.15 K, 70000 kPa	1539.2 ± 2.2 kg/m3	–
313.15 K, 80000 kPa	1552.9 ± 2.4 kg/m3	–
313.15 K, 90000 kPa	1565.7 ± 2.7 kg/m3	–
313.15 K, 100000 kPa	1577.6 ± 3 kg/m3	–
313.15 K, 110000 kPa	1589 ± 3.3 kg/m3	–
313.15 K, 120000 kPa	1599.7 ± 3.6 kg/m3	–
313.15 K, 130000 kPa	1610 ± 3.9 kg/m3	–
313.15 K, 140000 kPa	1619.7 ± 4.2 kg/m3	–
323.15 K, 100 kPa	1365.15 ± 1 kg/m3	545.46 ± 1.4
333.15 K, 100 kPa	1341.02 ± 1 kg/m3 and 1340.7 ± 0.9 kg/m3	515.64 ± 1.4
333.15 K, 1000 kPa	1344.8 ± 0.9 kg/m3	–
333.15 K, 5000 kPa	1361.6 ± 0.9 kg/m3	–
333.15 K, 10000 kPa	1380.1 ± 1 kg/m3	–
333.15 K, 15000 kPa	1396.3 ± 1 kg/m3	–
333.15 K, 20000 kPa	1410.8 ± 1.1 kg/m3	–
333.15 K, 25000 kPa	1424.2 ± 1.2 kg/m3	–
333.15 K, 30000 kPa	1436.4 ± 1.2 kg/m3	–
333.15 K, 35000 kPa	1447.8 ± 1.3 kg/m3	–
333.15 K, 40000 kPa	1458.5 ± 1.4 kg/m3	–
333.15 K, 45000 kPa	1468.6 ± 1.5 kg/m3	–
333.15 K, 50000 kPa	1478 ± 1.6 kg/m3	–
333.15 K, 55000 kPa	1487 ± 1.7 kg/m3	–
333.15 K, 60000 kPa	1495.5 ± 1.8 kg/m3	–
333.15 K, 65000 kPa	1503.7 ± 1.9 kg/m3	–
333.15 K, 70000 kPa	1511.5 ± 2.1 kg/m3	–
333.15 K, 80000 kPa	1526.3 ± 2.3 kg/m3	–
333.15 K, 90000 kPa	1540 ± 2.6 kg/m3	–
333.15 K, 100000 kPa	1552.7 ± 2.9 kg/m3	–
333.15 K, 110000 kPa	1564.7 ± 3.1 kg/m3	–
333.15 K, 120000 kPa	1576 ± 3.4 kg/m3	–
333.15 K, 130000 kPa	1586.8 ± 3.7 kg/m3	–
333.15 K, 140000 kPa	1597.2 ± 4 kg/m3	–
353.15 K, 1000 kPa	1295.2 ± 0.9 kg/m3	–
353.15 K, 5000 kPa	1316.1 ± 0.9 kg/m3	–
353.15 K, 10000 kPa	1338.1 ± 0.9 kg/m3	–
353.15 K, 15000 kPa	1357.1 ± 1 kg/m3	–
353.15 K, 20000 kPa	1373.9 ± 1 kg/m3	–
353.15 K, 25000 kPa	1388.9 ± 1.1 kg/m3	–
353.15 K, 30000 kPa	1402.6 ± 1.2 kg/m3	–
353.15 K, 35000 kPa	1415.3 ± 1.3 kg/m3	–
353.15 K, 40000 kPa	1426.8 ± 1.4 kg/m3	–
353.15 K, 45000 kPa	1437.9 ± 1.4 kg/m3	–
353.15 K, 50000 kPa	1448.2 ± 1.5 kg/m3	–
353.15 K, 55000 kPa	1457.9 ± 1.6 kg/m3	–
353.15 K, 60000 kPa	1467.2 ± 1.7 kg/m3	–
353.15 K, 65000 kPa	1475.9 ± 1.8 kg/m3	–
353.15 K, 70000 kPa	1484.5 ± 2 kg/m3	–
353.15 K, 80000 kPa	1500.2 ± 2.2 kg/m3	–
353.15 K, 90000 kPa	1514.8 ± 2.5 kg/m3	–
353.15 K, 100000 kPa	1528.3 ± 2.7 kg/m3	–
353.15 K, 110000 kPa	1541.1 ± 3 kg/m3	–
353.15 K, 120000 kPa	1553 ± 3.3 kg/m3	–
353.15 K, 130000 kPa	1564.3 ± 3.6 kg/m3	–
353.15 K, 140000 kPa	1575.1 ± 3.9 kg/m3	–
373.15 K, 1000 kPa	1242.1 ± 0.9 kg/m3	–
373.15 K, 5000 kPa	1268.4 ± 0.9 kg/m3	–
373.15 K, 10000 kPa	1295.1 ± 0.9 kg/m3	–
373.15 K, 15000 kPa	1317.3 ± 1 kg/m3	–
373.15 K, 20000 kPa	1336.2 ± 1 kg/m3	–
373.15 K, 25000 kPa	1353.3 ± 1.1 kg/m3	–
373.15 K, 30000 kPa	1368.8 ± 1.1 kg/m3	–
373.15 K, 35000 kPa	1382.9 ± 1.2 kg/m3	–
373.15 K, 40000 kPa	1395.6 ± 1.3 kg/m3	–
373.15 K, 45000 kPa	1407.7 ± 1.4 kg/m3	–
373.15 K, 50000 kPa	1418.8 ± 1.5 kg/m3	–
373.15 K, 55000 kPa	1429.4 ± 1.6 kg/m3	–
373.15 K, 60000 kPa	1439.5 ± 1.7 kg/m3	–
373.15 K, 65000 kPa	1448.9 ± 1.8 kg/m3	–
373.15 K, 70000 kPa	1457.9 ± 1.9 kg/m3	–
373.15 K, 80000 kPa	1474.7 ± 2.1 kg/m3	–
373.15 K, 90000 kPa	1490.2 ± 2.4 kg/m3	–
373.15 K, 100000 kPa	1504.5 ± 2.6 kg/m3	–
373.15 K, 110000 kPa	1517.9 ± 2.9 kg/m3	–
373.15 K, 120000 kPa	1530.5 ± 3.2 kg/m3	–
373.15 K, 130000 kPa	1542.3 ± 3.4 kg/m3	–
373.15 K, 140000 kPa	1553.7 ± 3.7 kg/m3	–
393.15 K, 1000 kPa	1183.9 ± 0.9 kg/m3	–
393.15 K, 5000 kPa	1218.3 ± 0.9 kg/m3	–
393.15 K, 10000 kPa	1250.8 ± 0.9 kg/m3	–
393.15 K, 15000 kPa	1277 ± 0.9 kg/m3	–
393.15 K, 20000 kPa	1299.1 ± 1 kg/m3	–
393.15 K, 25000 kPa	1318.3 ± 1 kg/m3	–
393.15 K, 30000 kPa	1335.4 ± 1.1 kg/m3	–
393.15 K, 35000 kPa	1350.9 ± 1.2 kg/m3	–
393.15 K, 40000 kPa	1365.1 ± 1.2 kg/m3	–
393.15 K, 45000 kPa	1378.1 ± 1.3 kg/m3	–
393.15 K, 50000 kPa	1390.2 ± 1.4 kg/m3	–
393.15 K, 55000 kPa	1401.6 ± 1.5 kg/m3	–
393.15 K, 60000 kPa	1412.4 ± 1.6 kg/m3	–
393.15 K, 65000 kPa	1422.5 ± 1.7 kg/m3	–
393.15 K, 70000 kPa	1432.1 ± 1.8 kg/m3	–
393.15 K, 80000 kPa	1450 ± 2 kg/m3	–
393.15 K, 90000 kPa	1466.2 ± 2.3 kg/m3	–
393.15 K, 100000 kPa	1481.5 ± 2.5 kg/m3	–
393.15 K, 110000 kPa	1495.5 ± 2.8 kg/m3	–
393.15 K, 120000 kPa	1508.7 ± 3 kg/m3	–
393.15 K, 130000 kPa	1521.1 ± 3.3 kg/m3	–
393.15 K, 140000 kPa	1532.1 ± 3.6 kg/m3	–
